The results in this text go back to patent publication US9505765B2, “4-alkoxy/aralkoxy-5-substituted-pyrrolopyrimidine compounds as TAK1 inhibitors in disease treatment” (Confluence Life Sciences Inc., priority 2012, dated 2016).

One experiment concerns the target TAK1-TAB1 (Homo sapiens (Human), UniProt O43318). Briefly: TAK1-TAB1 competitive binding assay (LanthaScreen), without pre-incubation. Conditions: 10 nM TAK1-TAB1, 100 nM kinase tracer-236, read-out: TAK1-TAB1 Inhibition IC50. The text has this:
TAK1-TAB1 Binding Inhibitory Potency: The ability of candidate compounds to interact with TAK1-TAB1 is quantitated by a competitive binding assay using the LanthaScreen technology developed by Life Technologies. This assay is based on the binding of a proprietary, Alexa Fluor® 647-labeled, ATP-competitive kinase inhibitor (kinase tracer-236) to the TAK1-TAB1 construct in presence of a europium-conjugated antibody, resulting in a FRET (fluorescence resonance energy transfer) signal. Displacement of the kinase tracer by compound results in a lower emission ratio upon excitation of the europium chelate. Candidate compounds are designed as potential irreversible inhibitors of TAK1-TAB1, capable of ligating to an active site cysteine residue. The time dependent nature of irreversible inhibition is investigated by performing the binding assay with and without a pre-incubation of compound and TAK1-TAB1.
The inhibitory potency of candidate compounds is measured in 20 mM HEPES pH 7.5, 10 mM MgCl2, 0.01% BSA, 0.0005% Tween-20, and 2% DMSO in the presence of 10 nM TAK1-TAB1, 2 nM Eu-anti-his antibody, and 100 nM kinase tracer-236 using a 384-well plate format. Background signal is defined in the absence of TAK1-TAB1 and uninhibited signal is defined in the presence of vehicle (2% DMSO) alone. Compounds were evaluated in an 11 point dose-response ranging from 20 μM to 0.34 nM. The binding assays are performed under two conditions to evaluate time dependence of inhibition. For the pre-incubation assay, TAK1-TAB1 and Eu-anti-his antibody are preincubated with compound or vehicle for two hours prior to the addition of kinase tracer. The non-preincubated assay is run in which TAK1-TAB1 and Eu-anti-his antibody are added to a mixture of compound and kinase tracer. IC50 values of compounds are determined using a 4 parameter logistical fit of emission ratio as a function of the concentration of compound.
Compounds were tested in accordance with the above described assay, without pre-incubation, yielding the values described below: […]

The subject of a further experiment is A549 cells. The experiment can be described thus: IL-1β stimulated IL-6 Production in A549 cells. The experiment is classed as cell-based. Conditions: Homo sapiens, 1 ng/ml rhIL1β, 18 hrs; for IC50: read-out: IL-6 Production IC; for activity at 5 µM: 5 μM compound, read-out: IL-6 Production % Control 5 μM; for activity at 50 µM: 50 μM compound, read-out: IL-6 Production % Control 50 μM. How it is done:
IL-1β stimulated IL-6 Production in A549 cells: The cellular efficacy of compound candidates is determined using the human lung epithelial cell line A549 (ATCC #CCL-185), based upon the methods of Wheeler et al. (2004) J. Nutrition 134, 1039-1044, and Eda et al. (2011) Cell Biol. Int. 35, 355-358. A549 cells produce a number of cytokines (IL6, IL8 and TNFα) in response to stimulation with IL1β. To induce the production of inflammatory mediators, A549 cells are plated at a final concentration of 3×10^5 cells/well of a 96 well flat bottom plate in F12-K medium supplemented with 10% fetal bovine serum, 100 units/ml penicillin and 100 μg/ml streptomycin (Gibco BRL Life Technologies). Cells are treated with or without inhibitors for 3 hrs then stimulated with 1 ng/ml rhIL1β (R & D Systems) for an additional 18 hrs at 37° C. with 5% CO2. The supernatants are removed and stored at −20° C. until they are to be assayed. The levels of inflammatory mediators are determined using commercial MSD cytokine kits (Meso Scale Discovery) as per the manufacturer's instructions. Standard curves are based on 7 steps of 4× serial dilutions, with a wide dynamic range of 10000 pg/ml to 2.4 pg/ml, and the blank in triplicate. Lower limit of detection (LLOD) is calculated at the commonly used 3× the standard deviation of the blank.
Compounds were tested in accordance with the above described assay, yielding the values described below: […]

Sequence of TAK1-TAB1 (O43318 other isoform, or with tags, fused parts or gaps): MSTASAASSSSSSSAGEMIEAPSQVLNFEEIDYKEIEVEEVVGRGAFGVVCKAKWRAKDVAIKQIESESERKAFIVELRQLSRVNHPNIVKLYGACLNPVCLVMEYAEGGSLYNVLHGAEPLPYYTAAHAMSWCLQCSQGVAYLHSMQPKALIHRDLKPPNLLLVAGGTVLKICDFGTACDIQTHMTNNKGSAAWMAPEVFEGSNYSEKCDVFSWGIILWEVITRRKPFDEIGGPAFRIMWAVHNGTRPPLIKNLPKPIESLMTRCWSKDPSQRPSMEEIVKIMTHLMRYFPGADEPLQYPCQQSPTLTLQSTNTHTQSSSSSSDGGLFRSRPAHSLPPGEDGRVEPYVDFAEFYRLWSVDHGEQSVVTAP

On to `NC(=O)/C=C/c1c[nH]c2ncnc(OCC(F)(F)F)c12` [Example 191, (E)-3-(4-(2,2,2-trifluoroethoxy)-7H-pyrrolo[2,3-d]pyrimidin-5-yl)acrylamide], for which, on TAK1-TAB1, the IC50 came to 33 nM. Further, in the experiment with A549 cells, the IC50 was determined as 150 nM, the activity at 5 µM is 0% and the activity at 50 µM was 0%.
`CC(C)COc1ncnc2[nH]cc(/C=C/C(=O)O)c12` [Example 178, (E)-3-(4-isobutoxy-7H-pyrrolo[2,3-d]pyrimidin-5-yl)acrylic acid]: the IC50 on TAK1-TAB1 worked out at 340 nM. Further, in the experiment with A549 cells, the activity at 5 µM stood at 68% and the activity at 50 µM was 1%.
As for `NC(=O)/C=C/c1c[nH]c2ncnc(OC3CCC(F)(F)CC3)c12` [Example 199, 3-[4-(4,4-difluoro-cyclohexyloxy)-7H-pyrrolo[2,3-c]pyrimidin-5-yl]-acrylamide], the IC50 at TAK1-TAB1 was found to be 16 nM. In addition, in the experiment on A549 cells, the IC50 was 180 nM, the activity at 5 µM was determined as 0% and the activity at 50 µM amounted to 0%.
As for `CC(C)Oc1ncnc2[nH]cc(/C=C/C(N)=O)c12` [Example 188, (E)-3-(4-isopropoxy-7H-pyrrolo[2,3-d]pyrimidin-5-yl)acrylamide], on TAK1-TAB1, the IC50 was 4.4 nM. In the experiment with A549 cells, the IC50 was determined as 170 nM, the activity at 5 µM stood at 0% and the activity at 50 µM worked out at 0%.
Regarding `COC(=O)/C=C/c1c[nH]c2ncnc(OCc3ccccc3)c12` [Example 201, (E)-3-(4-benzyloxy-7H-pyrrolo[2,3-d]pyrimidin-5-yl)-acrylic acid methylester], the IC50 at TAK1-TAB1 was 350 nM. Besides, in the experiment on A549 cells, the IC50 was 800 nM, the activity at 5 µM was 26% and the activity at 50 µM was determined as 1%.
For the compound `CC(C)(C)COc1ncnc2[nH]cc(/C=C/C(N)=O)c12` [Example 192, (E)-3-(4-(neopentyloxy)-7H-pyrrolo[2,3-d]pyrimidin-5-yl)acrylamide], the IC50 on TAK1-TAB1 came to 5.2 nM. Further, in the experiment with A549 cells, the IC50 was 78 nM, the activity at 5 µM turned out to be 0% and the activity at 50 µM worked out at 0%.
As to `NC(=O)/C=C/c1c[nH]c2ncnc(OCc3ccccc3)c12` [Example 96, (E)-3-(4-benzyloxy-7H-pyrrolo[2,3-d]pyrimidin-5-yl)-acrylamide], the IC50 at TAK1-TAB1 was 730 nM. In the experiment with A549 cells, the activity at 5 µM was found to be 78% and the activity at 50 µM came out at 0%.
Turning to `CNC(=O)/C=C/c1c[nH]c2ncnc(OCC(C)C)c12` [Example 39, (E)-3-(4-isobutoxy-7H-pyrrolo[2,3-d]pyrimidin-5-yl)-N-methylacrylamide], the IC50 at TAK1-TAB1 amounted to 41 nM. Also, in the experiment on A549 cells, the IC50 stood at 43 nM, the activity at 5 µM worked out at 0% and the activity at 50 µM was 0%.
Regarding `CC(C)COc1ncnc2[nH]cc(/C=C(\Cl)C(N)=O)c12` [Example 196, (Z)-2-chloro-3-(4-isobutoxy-7H-pyrrolo[2,3-d]pyrimidin-5-yl)acrylamide], the IC50 at TAK1-TAB1 was found to be 360 nM. Moreover, in the experiment on A549 cells, the IC50 is 750 nM, the activity at 5 µM came out at 0% and the activity at 50 µM was found to be 0%.
Consider `CC(C)COc1ncnc2[nH]cc(/C=C/C(N)=O)c12` [Example 38, (E)-3-(4-isobutoxy-7H-pyrrolo[2,3-d]pyrimidin-5-yl)acrylamide], for which the IC50 on TAK1-TAB1 was 3.1 nM. For the same compound, in the experiment on A549 cells, the IC50 was found to be 85 nM, the activity at 5 µM worked out at 0% and the activity at 50 µM is 0%.
In the case of `CC(C)COc1ncnc2[nH]cc(/C=C/C(=O)N(C)C)c12` [Example 184, (E)-3-(4-isobutoxy-7H-pyrrolo[2,3-d]pyrimidin-5-yl)-N,N-dimethylacrylamide], the IC50 at TAK1-TAB1 was determined as 97 nM. Further, in the experiment on A549 cells, the IC50 was determined as 190 nM, the activity at 5 µM is 1% and the activity at 50 µM was 0%.
Regarding `CCC(=O)/C=C/c1c[nH]c2ncnc(OCC(C)C)c12` [Example 175, (E)-1-(4-isobutoxy-7H-pyrrolo[2,3-d]pyrimidin-5-yl)pent-1-en-3-one], the IC50 at TAK1-TAB1 amounted to 200 nM. Besides, in the experiment on A549 cells, the IC50 was 990 nM, the activity at 5 µM stood at 3% and the activity at 50 µM is 0%.
